Source: the NIST ThermoML archive (doi:10.1016/j.jct.2017.08.029)

Assay: wn = mass fraction of the nth substance listed
Details: 100 kPa, Liquid, Direct current cell with electrodes

C=CC[P+](c1ccccc1)(c1ccccc1)c1ccccc1.[Br-] [allyltriphenylphosphonium bromide] + OCCOCCO
electrical conductivity [S/m]
Details	293.15 K	303.15 K	313.15 K	323.15 K	333.15 K	343.15 K
w1 = 0.1842	0.0997	0.115	0.14	0.175	0.224	0.279
w1 = 0.2653	0.118	0.129	0.159	0.198	0.253	0.315
w1 = 0.4745	0.137	0.148	0.177	0.222	0.274	0.339

C=CC[P+](c1ccccc1)(c1ccccc1)c1ccccc1.[Br-] [allyltriphenylphosphonium bromide] + OCCOCCOCCO
electrical conductivity [S/m]
Details	293.15 K	303.15 K	313.15 K	323.15 K	333.15 K	343.15 K
w1 = 0.1375	0.037	0.0441	0.0643	0.0881	0.116	0.149
w1 = 0.2033	0.0477	0.0632	0.0905	0.118	0.155	0.208
w1 = 0.3895	0.067	0.0805	0.112	0.147	0.193	0.244
